Experimental data from patent US5008386A, “Methylated cyclodextrin type compounds and process for preparing same” (Chinoin Gyogyszer es Vegyeszeti Termekek Gyara R.T., priority 1987, dated 1991).
In brackets after ≈: the same amount, converted by molar mass. Several values for one entry are separate records, joined by “and”; a condition that tells them apart may be missing. Equal entries are not always repeated. Where two headings read alike, the source gives them in different places.

What was measured:
[1] = Solubility-increasing effect (UV spectrophotometry, 22 °C, 18 hours stirring)
Experimental: Therefore comparative examinations concerning the solubility-increasing effect were performed with model guest-molecules containing a basic group. (The measurements were carried out by UV spectrophotometry at 22° C. after stirring for 18 hours).

human erythrocytes [2] = assay: in vitro; type: cell-based
Experimental: (§1) Solutions containing the test substances in 10 mM concentration were prepared in a 10 mM phosphate buffer at pH 7.4. The commercially available α-, β- and γ-CD products manufactured by Chinoin Chemical and Pharmaceutical Works Ltd. (Budapest, Hungary) were used.
(§2) DIMEB and TRIMEB, i.e. heptakis(2,6-di-O-methyl)-β-CD and heptakis(2,3,6-tri-O-methyl)-β-CD, respectively were prepared by the partial or total methylation of β-CD as described previously.
(§3) Fresh human blood (taken from healthy donors being under no medicinal treatment) treated by citrate as anticoagulant was centrifuged at 2000-3000× g for 10 minutes, then the supernatant was decanted, the eryhtrocytes were suspended in 5 ml of 10 mM isotonic phosphate buffer each and again centrifuged at 2000-3000× g for 10 minutes. After repeating twice this operation, the resulting erythrocytes were suspended in isotonic phosphate buffer to obtain a haematocrite volume of about 10%. This suspension (which could be stored in a refrigerator at about 4° C. for at most 48 hours) was used in further experiments.
(§4) 0.4 ml of erythrocyte suspension was added to a test solution of 4 ml total volume containing the tested CD-s and derivatives in various concentrations, then the mixture was incubated at 37° C. for 30 minutes. The mixture of 4 ml isotonic phosphate buffer and 0.4 ml erythrocyte suspension was used as blank trial (which was treated similarly to the samples).
(§5) After 30 minutes, the suspensions being present in the centrifuge tubes were centrifuged at 250-500× g for 10 minutes. (It was observed that no transparent supernatant, useful for spectrophotometric determination was obtained when the centrifuging was carried out for a shorter time.) After 10 minutes, the supernatants were drained off and their extinction was photometrically determined at 543 nm against a blank solution. In order to give the percentage of haemolysis, the extinction measured after a complete haemolysis had to be determined. This value was obtained in such a way that 0.4 ml of erythrocyte suspension was added to 4 ml of distilled water, then incubation and centrifuging were carried out in the same manner as described for the samples. The extinction of the solution thus obtained gave the 100% value of the haemolysis; when relating the measured extinctions of the samples to the 100% value, the extent of the haemolysis was obtained as a relative percentage.

in vitro = type: cell-based, human; conditions: human, erythrocytes, pH 7.4
Experimental: as §1, §2, §3, §4, §5

human erythrocytes [3] = conditions: cited from earlier work
[4] = 2.5% SUMEB vs 2.5% DIMEB solution, * UV maximum shifted (Sensit base)
[5] = human, erythrocytes, 0.5 h, pH 7.4
[6] = 37° C., pH 7,4, 10 mmoles isotonic phosphate buffer

| Molecule | SUMEB / DIMEB (ratio of solubilities) [1, 4] | solubility at 18 h ([1]; 2.5% dimeb solution) | solubility at 18 h ([1]; 2.5% sumeb solution) | HC50 at 0.5 h (in vitro) | MNTC at 0.5 h (in vitro) | further results |
| --- | --- | --- | --- | --- | --- | --- |
| CC(Cc1ccccc1)NCCC(c1ccccc1)c1ccccc1 (racemic) [± Prenylamine base, Prenylamine] | 3.75 | 2000 µg/mL (≈ 6.07 mM) | 7500 µg/mL (≈ 22.8 mM) |  |  | solubility at 18 h ([1]; water): 310 µg/mL (≈ 0.941 mM) |
| CC(NCCC(c1ccccc1)c1ccccc1)c1ccccc1 (racemic) [± Sensit base] |  | 5500 µg/mL (≈ 17.4 mM) | 8500 µg/mL (≈ 26.9 mM) |  |  | SUMEB / DIMEB (ratio of solubilities) [1]: 1.53; solubility at 18 h ([1]; water): 2100 µg/mL (≈ 6.66 mM) |
| C[C@@H]([C@H](O)c1ccccc1)N(C)C [- N-Methylephedrine base, N-Methylephedrine] | 1.2 | 18500 µg/mL (≈ 103 mM) | 22000 µg/mL (≈ 123 mM) |  |  |  |
| CC(C)CCC[C@@H](C)[C@H]1CC[C@H]2[C@@H]3CC=C4C[C@@H](O)CC[C@]4(C)[C@H]3CC[C@]12C [Cholesterol] | 0.37 | 1710 µg/mL (≈ 4.42 mM) | 640 µg/mL (≈ 1.66 mM) |  |  | solubility at 18 h ([1]; water): 100 µg/mL (≈ 0.259 mM) |
| COC[C@H]1O[C@@H]2O[C@H]3[C@H](O)[C@@H](OC)[C@@H](O[C@H]4[C@H](O)[C@@H](OC)[C@@H](O[C@H]5[C@H](O)[C@@H](OC)[C@@H](O[C@H]6[C@H](O)[C@@H](OC)[C@@H](O[C@H]7[C@H](O)[C@@H](OC)[C@@H](O[C@H]8[C@H](O)[C@@H](OC)[C@@H](O[C@H]1[C@H](O)[C@H]2OC)O[C@@H]8COC)O[C@@H]7COC)O[C@@H]6COC)O[C@@H]5COC)O[C@@H]4COC)O[C@@H]3COC [DIMEB, heptakis(2,6-di-O-methyl)-β-CD] |  |  |  | 1 mM and 1440 µg/mL | 220 µM and 300 µg/mL | concentration giving the same percentage of haemolysis, relative to β-CD (human erythrocytes [2]): one sixth |
| c1ccc(Nc2ccccc2)cc1 [Diphenylamine] | 0.72 | 520 µg/mL (≈ 3.07 mM) | 410 µg/mL (≈ 2.42 mM) |  |  |  |
| COC[C@H]1O[C@@H]2O[C@H]3[C@H](OC)[C@@H](OC)[C@@H](O[C@H]4[C@H](OC)[C@@H](OC)[C@@H](O[C@H]5[C@H](OC)[C@@H](OC)[C@@H](O[C@H]6[C@H](OC)[C@@H](OC)[C@@H](O[C@H]7[C@H](OC)[C@@H](OC)[C@@H](O[C@H]8[C@H](OC)[C@@H](OC)[C@@H](O[C@H]1[C@H](OC)[C@H]2OC)O[C@@H]8COC)O[C@@H]7COC)O[C@@H]6COC)O[C@@H]5COC)O[C@@H]4COC)O[C@@H]3COC [TRIMEB, heptakis(2,3,6-tri-O-methyl)-β-CD] |  |  |  | 4 mM and 5700 µg/mL | 1.4 mM and 2000 µg/mL | haemolytic effect, in words (human erythrocytes [2]): also higher than that of the mother compound |
| OC[C@H]1O[C@@H]2O[C@H]3[C@H](O)[C@@H](O)[C@@H](O[C@H]4[C@H](O)[C@@H](O)[C@@H](O[C@H]5[C@H](O)[C@@H](O)[C@@H](O[C@H]6[C@H](O)[C@@H](O)[C@@H](O[C@H]7[C@H](O)[C@@H](O)[C@@H](O[C@H]1[C@H](O)[C@H]2O)O[C@@H]7CO)O[C@@H]6CO)O[C@@H]5CO)O[C@@H]4CO)O[C@@H]3CO [α-CD] |  |  |  | 12 mM and 11700 µg/mL | 6 mM and 5800 µg/mL | low concentration protecting human erythrocytes against heat-induced or osmotic haemolysis (human erythrocytes [3]): 5 mmol; concentration at (and above) which haemolysis is induced (human erythrocytes [3]; pH 7): 6 mmol; Haemolysis values, measured (human erythrocytes [2]; [5]): 4.97% |
| OC[C@H]1O[C@@H]2O[C@H]3[C@H](O)[C@@H](O)[C@@H](O[C@H]4[C@H](O)[C@@H](O)[C@@H](O[C@H]5[C@H](O)[C@@H](O)[C@@H](O[C@H]6[C@H](O)[C@@H](O)[C@@H](O[C@H]7[C@H](O)[C@@H](O)[C@@H](O[C@H]8[C@H](O)[C@@H](O)[C@@H](O[C@H]1[C@H](O)[C@H]2O)O[C@@H]8CO)O[C@@H]7CO)O[C@@H]6CO)O[C@@H]5CO)O[C@@H]4CO)O[C@@H]3CO [β-CD, β-cyclodextrin] |  |  |  | 6 mM and 6800 µg/mL | 1.6 mM and 1800 µg/mL | concentration at (and above) which haemolysis is induced (human erythrocytes [3]; [6]): 3 mmol |
| OC[C@H]1O[C@@H]2O[C@H]3[C@H](O)[C@@H](O)[C@@H](O[C@H]4[C@H](O)[C@@H](O)[C@@H](O[C@H]5[C@H](O)[C@@H](O)[C@@H](O[C@H]6[C@H](O)[C@@H](O)[C@@H](O[C@H]7[C@H](O)[C@@H](O)[C@@H](O[C@H]8[C@H](O)[C@@H](O)[C@@H](O[C@H]9[C@H](O)[C@@H](O)[C@@H](O[C@H]1[C@H](O)[C@H]2O)O[C@@H]9CO)O[C@@H]8CO)O[C@@H]7CO)O[C@@H]6CO)O[C@@H]5CO)O[C@@H]4CO)O[C@@H]3CO [γ-CD] |  |  |  | 24 mM and 32000 µg/mL | ≤ 9 mM and ≤ 11000 µg/mL | concentration at (and above) which haemolysis is induced (human erythrocytes [3]; [6]): 16 mmol; low concentration protecting human erythrocytes against heat-induced or osmotic haemolysis (human erythrocytes [3]): 10 mmol |
| trideca-O-methyl-monosuccinyl-β-cyclodextrin [SUMEB] |  |  |  |  |  | haemolytic effect, in words (human erythrocytes [2]): significantly lower in comparison to the haemolytic effect of the mother compound; concentration at which no haemolytic effect was observed (human erythrocytes [2]; [5]): 0.3 mg/mL; concentration with a haemolysis value of 50% (human erythrocytes [2]; [5]): 6.5 mg/mL |
| trideca-O-methyl-monosuccinyl-β-cyclodextrin methyl ester [Succinyl-DIMEB methyl ester] |  |  |  |  |  | haemolytic effect, in words (human erythrocytes [2]): not significantly different from the haemolytic effect of the trideca-O-methyl-monosuccinyl-β-CD |
